Assay results reported in US10822338B2, “Substituted aminoquinazoline compounds as A2A antagonist” (Merck Sharp & Dohme Corp., priority 2015, dated 2020).

The compounds below were run against human A2A receptor (Homo sapiens (Human), UniProt P29274) (assay: A2A competition binding assay using Scintillation Proximity technology). Conditions: 0.25 μg of membranes from HEK293 cells expressing the human A2a receptor per well; 0.5 nM tritiated radioligand; Cheng-Prusoff.
Method: Binding affinities of compounds of the invention for the human A2A receptor were determined in a competition binding assay using Scintillation Proximity technology. Thus, 1^μg (^ denotes 1 μg of membrane/well), or preferably 0.25 μg of membranes from HEK293 cells expressing the human A2a receptor were incubated with a compound of the invention at concentrations ranging from 3000 nM to 0.15 nM in a reaction mixture containing also 0.5 nM of a tritiated form of 5-amino-7-[2-phenethyl]-2-(furan-2-yl)-7H-pyrazolo[4,3-e][1,2,4]triazolo[1,5-c]pyrimidine (the tritiated compound) and 25 μg of wheat germ agglutin-coated yttrium silicate SPA beads for one hour at room temperature with agitation. The beads were then allowed to settle to the bottom of the wells for 1 hr, after which the membrane-associated radioactivity was determined by scintillation counting in a TopCount microplate reader. Ki values were determined using the Cheng-Prusoff equation.
HEK293 cells expressing the human, rat, dog or monkey adenosine 2a receptor (Purchased from Perkin-Elmer # RBHA2AM400UA).
The Tritiated compound was prepared in-house by MRL Radiochemistry according to published methods.
Wheat germ agglutinin-coated yttrium silicate SPA beads (GE Healthcare #RPNQ0023). Dilute to 25 mg/mL in assay buffer.
Assay Buffer was prepared in house: Dulbecco's calcium and magnesium free phosphate buffered saline+10 mM MgCl2
Adenosine deaminase from calf intestine, 10 mg/2 mL (Roche #10 102 105 001).
A2A antagonist standard (9-chloro-1-(2-furanyl)-[1,2,4]triazolo[1,5-c]quinazolin-5-amine from Tocris Bioscience)
Make eight 1:3 serial dilutions in 100% DMSO from a 3 mM compound stock
Transfer 50 nL of compound into a 384-well OptiPlate (Perkin Elmer).
Typically, final concentrations of compound used in the assay ranged from 3000 nM to 0.152 nM.
Dilute a solution of the Tritiated compound to 1.25 nM in assay buffer. This a 2.5× solution. The final concentration in the assay is 0.5 nM. Calculate the concentration by counting two 5 μL aliquots.
Use *1 ug or preferrably 0.25 ug of membrane/well. Dilute membranes to 9.7 μg/ml in assay buffer. Treat with 20 ug/ml adenosine deaminase (ADA) for 15 minutes at room temperature to degrade endogenous adenosine.
Use 25 μg/well wheat germ agglutinin-coated yttrium silicate SPA beads.
Mix ADA-treated membranes and SPA beads together for 30 min prior to assay.
To the Perkin-Elmer Optiplate-384 containing the compound titration add 20 μL of 2.5× solution of the Tritiated compound and 30 μL of the membrane-bead mixture. Incubate for one hour at room temperature with agitation.
Include total binding (assay buffer+1% DMSO) and non-specific binding (CGS15943, 1 μM) wells.
Allow the beads to settle for one hour.
A curve fitting program (i.e., Prism, Activity Base, Chemcart) is used to determine the EC50. The Ki value is calculated using the Cheng-Prusoff equation. Ki=EC50/(1+(radioligand concentration/Kd)) Counting and Calculations
Counting and calculations were performed as described within the “A2A Activity Binding of Compounds of the Invention” section. Using the foregoing methods, the following results were obtained using compounds of the invention described herein. Each example compound tested is reported in the following format: Example number: A2A Ki (nM) selectivity.

Chain of human A2A receptor (P29274 whole entry): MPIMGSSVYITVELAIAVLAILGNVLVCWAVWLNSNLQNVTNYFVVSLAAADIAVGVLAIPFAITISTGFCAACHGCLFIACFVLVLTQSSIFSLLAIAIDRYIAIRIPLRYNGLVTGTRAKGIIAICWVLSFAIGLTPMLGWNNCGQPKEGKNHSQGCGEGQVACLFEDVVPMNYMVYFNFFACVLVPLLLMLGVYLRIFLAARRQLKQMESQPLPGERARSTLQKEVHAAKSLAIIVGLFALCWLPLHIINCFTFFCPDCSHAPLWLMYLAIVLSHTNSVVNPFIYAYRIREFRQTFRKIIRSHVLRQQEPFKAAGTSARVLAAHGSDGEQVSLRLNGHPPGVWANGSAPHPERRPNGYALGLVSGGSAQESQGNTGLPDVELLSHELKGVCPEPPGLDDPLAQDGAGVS

Ki [nM] | SMILES
9.7 | COc1cccc2c1nc(N)n1nc([C@@H]3CCCN(CC4CCCC4)C3)nc21 [Example 47, 2-((3R)-1-(cyclopentylmethyl)piperidin-3-yl)-7-methoxy[1,2,4]triazolo [1,5-c]quinazolin-5-amine]
5.9 | COc1cccc2c1nc(N)n1nc([C@@H]3CCCN(C4CCC(F)(F)CC4)C3)nc21 [Example 49, 2-((3R)-1-(4,4-difluorocyclohexyl)piperidin-3-yl)-7-methoxy[1,2,4]triazolo [1,5-c]quinazolin-5-amine]
1.2 | COc1cccc2c1nc(N)n1nc([C@@H]3CCCN(C4CC4)C3)nc21 [Example 52, (R)-2-(1-cyclopropylpiperidin-3-yl)-7-methoxy-[1,2,4]triazolo[1,5-c]quinazolin-5-amine]
2 | COc1cccc2c1nc(N)n1nc([C@@H]3CCN(CC(F)(F)F)C3)nc21 [Example 53, (R)-7-methoxy-2-(1-(2,2,2-trifluoroethyl)pyrrolidin-3-yl)-[1,2,4]triazolo[1,5-c]quinazolin-5-amine]
3 | COc1cccc2c1nc(N)n1nc([C@H]3CN(C4CCC(F)(F)CC4)CCO3)nc21 [Example 54, (R)-2-(4-(4,4-difluorocyclohexyl)morpholin-2-yl)-7-methoxy-[1,2,4]triazolo[15-c]quinazolin-5-amine]
0.5 | COc1cccc2c1nc(N)n1nc([C@@H]3CC(F)(F)CN3)nc21 [Example 57, (S)-2-(4,4-difluoropyrrolidin-2-yl)-7-methoxy-[1,2,4]triazolo[1,5-c]quinazolin-5-amine]

Further lines, the compound ahead of its results:

SMILES | Ki [nM]
COc1cccc2c1nc(N)n1nc([C@@H]3CCCN(C(=O)C(C)(C)F)C3)nc21 [Example 42, (R)-1-(3-(5-amino-7-methoxy-[1,2,4]triazolo[1,5-c]quinazolin-2-yl)piperidin-1-yl)-2-fluoro-2-methylpropan-1-one] | 1.1
COc1cccc2c1nc(N)n1nc([C@@H]3CCCN(CC(C)(C)F)C3)nc21 [Example 43, (R)-2-(1-(2-fluoro-2-methylpropyl)piperidin-3-yl)-7-methoxy-[1,2,4]triazolo[1,5-c]triazolo[1,5-c]quinazolin-5-amine] | 0.6
COc1cccc2c1nc(N)n1nc([C@@H]3CCCN(CC4CCOCC4)C3)nc21 [Example 44, (R)-7-methoxy-2-(1-((tetrahydro-2H-pyran-4-yl)methyl)piperidin-3-yl)-[1,2,4]triazolo[1,5-c]quinazolin-5-amine] | 5
COc1cccc2c1nc(N)n1nc([C@@H]3CCCN(Cc4cc(F)cc(C(F)(F)F)c4)C3)nc21 [Example 46, 2-((3R)-1-[3-fluoro-5-(trifluoromethyl)benzyl)piperidin-3-yl)-7-methoxy[1,2,4]triazolo [1,5-c]quinazolin-5-amine] | 2

Same assay, conditions: values marked ^: 1 μg of membrane/well (HEK293 cells expressing the human A2a receptor); 0.5 nM tritiated radioligand; Cheng-Prusoff

SMILES | Ki [nM]
COc1cccc2c1nc(N)n1nc([C@@H]3CCCN(C(=O)c4ccccc4)C3)nc21 [Example 37, (R)-(3-(5-amino-7-methoxy-[1,2,4]triazolo[1,5-c]quinazolin-2-yl)piperidin-1-yl)(phenyl)methanone] | 1.3
COc1cccc2c1nc(N)n1nc([C@@H]3CCCN(C(=O)C(C)(C)C)C3)nc21 [Example 38, 2-((3R)-1-(2,2-dimethylpropanoyl)piperidin-3-yl)-7-methoxy[1,2,4]triazolo [1,5-c]quinazolin-5-amine] | 4.4
COc1cccc2c1nc(N)n1nc([C@@H]3CCCN(C(=O)c4cccs4)C3)nc21 [Example 39, 7-methoxy-2-((3R)-1-(thiophen-2-ylcarbonyl)piperidin-3-yl)[1,2,4]triazolo[1,5-c]quinazolin-5-amine] | 2.7
COc1cccc2c1nc(N)n1nc([C@@H]3CCCN(C(=O)c4ocnc4C)C3)nc21 [Example 40, 7-methoxy-2-((3R)-1-((4-methyl-1,3-oxazol-5-yl)carbonyl)piperidin-3-yl)[1,2,4]triazolo[1,5-c]quinazolin-5-amine] | 1.5
COc1cccc(C(=O)N2CCC[C@@H](c3nc4c5cccc(OC)c5nc(N)n4n3)C2)c1 [Example 41, 7-methoxy-2-((3R)-1-((3-methoxyphenyl)carbonyl)piperidin-3-yl)[1,2,4]triazolo[1,5-c]quinazolin-5-amine] | 1.9
COc1cccc2c1nc(N)n1nc([C@@H]3CCCN(Cc4cccnc4)C3)nc21 [Example 45, 7-methoxy-2-((3R)-1-(pyridin-3-ylmethyl)piperidin-3-yl)[1,2,4]triazolo[1,5-c]quinazolin-5-amine] | 3.8
COc1cccc2c1nc(N)n1nc([C@@H]3CCCN(Cc4cnc(C)s4)C3)nc21 [Example 48, 7-methoxy-2-((3R)-1-((2-methyl-1,3-thiazol-5-yl)methyl)piperidin-3-yl)[1,2,4]triazolo[1,5-c]quinazolin-5-amine] | 2.1
